Data on three compounds can be found in patent US9242962B2, “Method of treatment” (GlaxoSmithKline Intellectual Property (No. 2) Limited, priority 2011, dated 2016).

Structures are written as SMILES.

The test system of assay [1] is CD4+ T cells. Put plainly: T cell receptor-induced CD4+ T cell proliferation (CFSE, flow cytometry). Format: cell-based, human. To be noted: 10 μg/mL αCD3 + 2 μg/mL αCD28, 6 days; for IC50: Homo sapiens, CD4+ T, 144 h, division index by CFSE, n=4, ±sem, read-out: pIC50, T cell receptor-induced proliferation of CD4+ T cells (converted). The procedure:
(§1) 15 mls ficoll was added to 8×50 mL accuspin tubes per donor and centrifuged at 2000 RPM for 1 min. Whole blood samples (200 mL+1% heparin) were collected from human donors. Approximately 25 ml blood was added to each ficoll pre-filled 50 ml falcon tubes with filter and centrifuged at 1500 RPM for 20 min with the brake off to avoid disturbing cell separation. 45 ml with PBS was added to the PBMC fraction of each tube and centrifuged at 1500 RPM for 10 min with brake. Supernatant were discarded and cell pellets resuspended in 2 ml PBS. Cell suspensions for each donor were recombined into a single falcon tube, made up to 45 ml with PBS and centrifuged at 1500 RPM for 10 min. CD4+ T cells were isolated by negative depletion using a CD4 T cell Isolation Kit from Miltenyi Biotech according to manufacturers protocol.
96-well flat-bottom plates were coated with 10 μg/mL anti-CD3+2 μg/mL anti-CD28 at 4° C. overnight. The following day, plates were washed with PBS. For proliferation studies, cells were stained with CFSE (Invitrogen) according to manufacturer's protocol. […] Cells were then transferred to 96-well round-bottom plates, washed and then analysed by flow cytometry.
(§2) Anti-CD3 (HU CD3 NALE MAB UCHT1; Cat #555329) and anti-CD28 (HU CD28 NALE MAB CD28.2; Cat #: 555725), were obtained from BD Pharmingen and dissolved in Dulbecco's Phosphate Buffered Saline (with Ca2+/Mg2+; Gibco). Ficoll-paque (Cat #17-1440-03) was obtained from GE Healthcare. The CD4+ T cell isolation kit (Cat #130-091-155) was obtained from Miltenyi Biotec. Cells were cultured in RPMI 1640 containing 10% FCS+1% pen/strep+1% L-glutamine. The CellTrace CFSE cell proliferation kit (Cat #C34554) was obtained from Invitrogen. Compound A, Compound B and Compound C were all synthesised in house and dissolved in 100% DMSO.
Flowjo Software was used to calculate a division index using fluorescence intensity. Data are expressed as mean±standard error of the mean; n values are the numbers of human donors used. pIC50 values were generated using GraphPad Prism software and non-linear sigmoid dose curve-fit.
(Flow cytometry measures light scatter and fluorescence of single cells or particles in a stream.)

In assay [2] the test system is CD4+ T cells. Put plainly: T cell receptor-induced cytokine production in CD4+ T cells (multiplex ELISA). Conditions: for IC50: Homo sapiens, CD4+ T, n=4, ±sem, read-out: pIC50, T cell receptor-induced production of IL-2 in CD4+ T cells (converted). It is filed as cell-based, human. The procedure: as §1
96-well flat-bottom plates were coated with 10 μg/mL anti-CD3+2 μg/mL anti-CD28 at 4° C. overnight. The following day, plates were washed with PBS. For cytokine production studies, cells were added to anti-CD3+anti-CD28 pre-coated 96-well plates at 0.4×10^6 cells/well in the presence of EZH1/EZH2 inhibitors or vehicle and incubated at 37° C./5% CO2. Supernatants were taken 18 h (IL-2) or 72 h (IL-10, IL-13, IL-17, IFN, TNF) for determination of cytokine production by multiplex ELISA from Mesoscale discovery according to the manufacturers protocols.
as §2
Data were analysed using Excel and are expressed as mean±standard error of the mean; n values are the numbers of human donors used. pIC50 values were generated using GraphPad Prism software and non-linear sigmoid dose curve-fit.

On to `Cc1ccc(CNC(=O)c2cc(C3CC3)nc3c2cnn3C(C)C)c(=O)[nH]1` [Compound C, 6-cyclopropyl-1-(1-methylethyl)-N-[(6-methyl-2-oxo-1,2-dihydro-3-pyridinyl)methyl]-1H-pyrazolo[3,4-b]pyridine-4-carboxamide], for which the “effect on T cell receptor-induced proliferation of CD4+ T cells” value in the assay with CD4+ T cells [1] (n=4) was “had no effect”. For the same compound, the “effect on T cell receptor-induced production of IL-2 in CD4+ T cells” value in the assay with CD4+ T cells [2] (18 h post stimulation, n=4, a pIC50 could not be calculated) is “impaired”. Moreover, the “effect on T cell receptor-induced production of IL-17 or IFN in CD4+ T cells” value with CD4+ T cells [2] (72 h post stimulation, n=4) is reported as “had no effect”. The “effect on IL-10, IL-13 & TNF production” value in the assay on CD4+ T cells [2] (High concentrations (i.e. >15 μM), 72 h, n=4) is given as “reduced”.

For the compound `CCCc1cc(C)[nH]c(=O)c1CNC(=O)c1cc(-c2ccc(N3CCN(C)CC3)nc2)cc2c1cnn2C(C)C` [Compound A, 1-(1-methylethyl)-N-[(6-methyl-2-oxo-4-propyl-1,2-dihydro-3-pyridinyl)methyl]-6-[6-(4-methyl-1-piperazinyl)-3-pyridinyl]-1H-indazole-4-carboxamide], the IC50 in the assay with CD4+ T cells [1] was 5.01 µM; in the assay on CD4+ T cells [2] (18 h post stimulation), 575 nM.

`Cc1cc(C)c(CNC(=O)c2cc(-c3ccc(N4CCN(C)CC4)nc3)cc3c2c(C)cn3C(C)C)c(=O)[nH]1` [Compound B, N-[(4,6-dimethyl-2-oxo-1,2-dihydro-3-pyridinyl)methyl]-3-methyl-1-(1-methylethyl)-6-[6-(4-methyl-1-piperazinyl)-3-pyridinyl]-1H-indole-4-carboxamide]: the IC50 in the assay with CD4+ T cells [1] was 11.7 µM; in the assay on CD4+ T cells [2] (18 h post stimulation), 1740 nM.
